Experimental data reported in publication PMC8673317 (Journal of medicinal chemistry, 2021).
Entries after “also recorded” stand apart in the source; their conditions may differ. Where a name gives a salt, the structure may show the parent alone.

Assays:
[1] = test system: 318 non-olfactory GPCRs (opioid receptors); experiment: PRESTO-Tango GPCRome β-arrestin2 recruitment screen; format: cell-based, human; settings: 10 μM
CCR3 = biological target: T1, CCR3 (Homo sapiens, UniProt P51677); experiment: PRESTO-Tango concentration-response; format: cell-based
T1 sequence (P51677 1-355): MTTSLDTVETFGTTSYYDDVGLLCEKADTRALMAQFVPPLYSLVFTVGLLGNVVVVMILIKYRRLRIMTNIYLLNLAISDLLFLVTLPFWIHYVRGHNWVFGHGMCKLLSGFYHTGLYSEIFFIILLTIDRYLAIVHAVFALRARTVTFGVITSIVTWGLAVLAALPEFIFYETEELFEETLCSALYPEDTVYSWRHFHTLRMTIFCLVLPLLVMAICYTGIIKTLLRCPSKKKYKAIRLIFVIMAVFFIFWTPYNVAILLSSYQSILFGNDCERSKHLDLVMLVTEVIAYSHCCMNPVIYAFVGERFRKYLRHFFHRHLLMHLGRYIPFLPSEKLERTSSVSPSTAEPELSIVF

CXCR7 = CXCR7 (Homo sapiens, UniProt P25106); experiment: PRESTO-Tango concentration-response; format: cell-based
129Sv6 mice [2] = experiment: Radiant heat tail flick antinociception; format: in vivo, mouse; settings: for opioid receptor dependence of antinociception (MOR, DOR, KOR KO mice): 129Sv6 (and C57BL/6J) KO mice, KAE 100 mg/kg po in 129Sv6; for effect of naloxone on antinociception: naloxone 1 mg/kg sc 15 min before drug; for antinociceptive activity in the tail-flick assay at doses as high as 100 mg/kg: alkaloid 2 po and sc, 9OH sc
mMOR [3] = biological target: T2, mMOR (Mus musculus, UniProt P42866); experiment: [35S]GTPγS functional assay in membranes of transfected cells; settings: read-out: [35S]GTPγS mMOR %Emax
BB3 = biological target: T3, BB3 (Homo sapiens, UniProt P32247); experiment: PRESTO-Tango concentration-response; format: cell-based
T3 sequence (P32247 1-399): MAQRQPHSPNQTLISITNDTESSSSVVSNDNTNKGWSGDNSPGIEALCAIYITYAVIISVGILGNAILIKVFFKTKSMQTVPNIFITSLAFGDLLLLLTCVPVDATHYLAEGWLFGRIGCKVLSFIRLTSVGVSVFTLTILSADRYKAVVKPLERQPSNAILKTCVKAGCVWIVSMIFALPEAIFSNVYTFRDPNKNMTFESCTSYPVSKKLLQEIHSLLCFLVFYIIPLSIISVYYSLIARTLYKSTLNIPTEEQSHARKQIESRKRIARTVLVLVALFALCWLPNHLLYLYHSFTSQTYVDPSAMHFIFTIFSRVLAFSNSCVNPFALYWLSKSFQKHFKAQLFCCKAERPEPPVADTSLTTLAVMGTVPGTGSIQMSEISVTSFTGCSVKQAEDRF

C57BL/6J mice [4] = experiment: Lethality; format: in vivo, mouse
MOR KO mice [5] = experiment: Lethality; format: in vivo, mouse
mDOR = mDOR (Mus musculus, UniProt P32300); experiment: [35S]GTPγS functional assay in membranes of transfected cells; settings: antagonism of 100 nM agonist
C57BL/6J mice [6] = settings: MP 0.76, 1.5, 4 mg/kg sc; Figure 2L reprinted; listed as MP; cited from earlier work
mKOR [7] = biological target: T4, mKOR (Mus musculus, UniProt P33534); settings: agonist stimulation, ± SEM; cited from earlier work
C57BL/6J mice [8] = experiment: 55 °C warm-water tail-withdrawal; format: in vivo, mouse
[9] = Pharmacokinetic study, plasma and brain levels by LC-MS/MS
mMOR [10] = biological target: T2, mMOR; settings: read-out: [35S]GTPγS mMOR EC50; agonist stimulation, ± SEM; cited from earlier work
MOR KO mice [11] = experiment: Antagonism of icv KOR/DOR agonist antinociception; format: in vivo, mouse; settings: MP 30 mg/kg sc
rats = settings: intravenous (iv) route; cited from earlier work
[12] = pH 7.4
[13] = Pharmacokinetic study, plasma and brain levels by LC-MS/MS; remark: listed apart in the source
129Sv6 mice [14] = experiment: Lethality; format: in vivo, mouse; settings: from rodent oral LD50
Lethality = format: in vivo, mouse; settings: 129Sv6, mouse, in vivo, po
C57BL/6J mice [15] = experiment: Conditioned place preference and aversion; format: in vivo, mouse; settings: alkaloid extract 100 mg/kg/d po, mitragynine 30 mg/kg/d po, 7OH 1 mg/kg/d sc
mice = settings: po; cited from earlier work
[16] = Stability in pH 7.4 buffer; format: physicochemical
C57BL/6J mice [17] = experiment: Locomotor; format: in vivo, mouse; settings: KAE 45 mg/kg po, mitragynine 20 mg/kg po, 7OH 1 mg/kg sc, MP […] sc
CD1 mice = settings: cited from earlier work
humans = settings: cited from earlier work
mKOR [18] = biological target: T4, mKOR; experiment: [35S]GTPγS functional assay in membranes of transfected cells; settings: relative to U50, 488H
[19] = C57BL/6J, mitragynine 30 mg/kg po

T4 sequence (P33534 whole entry): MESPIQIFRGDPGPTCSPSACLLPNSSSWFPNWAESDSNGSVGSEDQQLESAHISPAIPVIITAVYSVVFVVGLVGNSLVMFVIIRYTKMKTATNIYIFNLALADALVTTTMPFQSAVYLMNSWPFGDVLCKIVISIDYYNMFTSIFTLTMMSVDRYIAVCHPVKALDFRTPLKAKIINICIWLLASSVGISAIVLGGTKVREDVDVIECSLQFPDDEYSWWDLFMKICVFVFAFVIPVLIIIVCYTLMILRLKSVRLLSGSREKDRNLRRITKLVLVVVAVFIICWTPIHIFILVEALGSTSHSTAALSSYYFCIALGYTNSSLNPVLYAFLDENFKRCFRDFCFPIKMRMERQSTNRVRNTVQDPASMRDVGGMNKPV
T2 sequence (P42866 whole entry): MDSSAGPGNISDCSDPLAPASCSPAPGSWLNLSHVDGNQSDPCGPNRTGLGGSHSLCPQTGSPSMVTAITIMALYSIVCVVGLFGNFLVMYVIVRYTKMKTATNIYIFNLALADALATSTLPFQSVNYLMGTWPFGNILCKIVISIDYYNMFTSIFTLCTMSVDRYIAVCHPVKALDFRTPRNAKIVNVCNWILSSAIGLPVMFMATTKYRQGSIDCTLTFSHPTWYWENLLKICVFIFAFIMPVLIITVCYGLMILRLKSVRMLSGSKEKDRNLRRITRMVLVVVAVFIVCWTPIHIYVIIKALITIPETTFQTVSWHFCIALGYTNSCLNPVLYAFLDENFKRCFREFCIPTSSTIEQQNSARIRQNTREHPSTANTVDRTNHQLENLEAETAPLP
Chain of mDOR (P32300 whole entry): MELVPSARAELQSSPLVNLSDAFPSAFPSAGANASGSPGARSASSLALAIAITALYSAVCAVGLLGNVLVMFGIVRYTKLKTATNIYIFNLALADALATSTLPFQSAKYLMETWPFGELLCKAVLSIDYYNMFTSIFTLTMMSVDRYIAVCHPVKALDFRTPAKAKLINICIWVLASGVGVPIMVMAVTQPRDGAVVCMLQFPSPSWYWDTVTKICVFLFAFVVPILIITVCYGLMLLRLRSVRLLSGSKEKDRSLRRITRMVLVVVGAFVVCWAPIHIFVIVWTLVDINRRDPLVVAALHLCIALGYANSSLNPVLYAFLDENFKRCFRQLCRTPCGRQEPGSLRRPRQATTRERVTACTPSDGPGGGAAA
Chain of CXCR7 (P25106 whole entry): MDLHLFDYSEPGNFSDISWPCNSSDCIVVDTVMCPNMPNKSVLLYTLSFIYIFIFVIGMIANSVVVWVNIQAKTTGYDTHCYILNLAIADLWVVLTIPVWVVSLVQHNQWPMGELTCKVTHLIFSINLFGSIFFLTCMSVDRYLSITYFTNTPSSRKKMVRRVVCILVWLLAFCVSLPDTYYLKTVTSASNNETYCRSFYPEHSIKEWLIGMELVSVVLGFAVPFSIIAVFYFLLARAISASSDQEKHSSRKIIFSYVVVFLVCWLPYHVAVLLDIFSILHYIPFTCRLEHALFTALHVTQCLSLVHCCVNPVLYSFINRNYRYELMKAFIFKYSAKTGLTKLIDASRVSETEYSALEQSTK

With CC[C@@H]1C[N+]2=C(C[C@@H]1/C(=C\OC)C(=O)OC)c1[nH]c3cccc(OC)c3c1CC2 [3-dehydromitragynine, (2S,3S)-2-((E)-1,3-Dimethoxy-3-oxoprop-1-en-2-yl)-3-ethyl-8-methoxy-2,3,4,6,7,12-hexahydro-1H-indolo[2,3-a]quinolizin-5-ium TFA Salt] the “increase in luminescence signal, fold of basal, at opioid receptors” value [1] was > 3 fold of basal, the “off-target activity (in words)” value ([1]; Table 1 and Figure 6B) was “no other notable off–target activity beyond opioid receptors” and the “activity at CCR3 (in words)” value (CCR3) was “Poor (μM) activity”. For the same compound, the “activity at CXCR7 (in words)” value (CXCR7) was “Poor (μM) activity”, the “antinociception in mice (in words)” value (129Sv6 mice [2]; administered directly) was “not antinociceptive” and the Emax (mMOR [3]) was 44 ± 1%. For the same compound, the “activity at BB3 (in words)” value (BB3) was “Poor (μM) activity”, the lethality (C57BL/6J mice [4]; 50 mg/kg, sc) was 100% and the “lethality in the presence of KOR antagonist (nor-BNI) and DOR antagonist (NTI)” value (C57BL/6J mice [4]; 3DM 50 mg/kg sc, norBNI 10 mg/kg sc 24 h, NTI 20 mg/kg sc 15 min pretreatment) was “lethality was still observed”. For the same compound, the lethality (MOR KO mice [5]; 50 mg/kg, sc) was 100%.
For CC[C@@H]1CN2CCc3c([nH]c4cccc(O[C@@H]5O[C@H](C(=O)O)[C@@H](O)[C@H](O)[C@H]5O)c34)[C@@H]2C[C@@H]1/C(=C\OC)C(=O)OC [9-glucuronoyl mitragynine, (2S,3S,5R,6S)-6-(((2S,3S)-2-((E)-1,3-Dimethoxy-3-oxoprop-1-en-2-yl)-3-ethyl-1,2,3,4,6,7,12,12b-octahydroindolo[2,3-a]quinolizin-8-yl)oxy)-3,4,5-trihydroxytetrahydro-2H-pyran-2-carboxylic Acid], the “[35S]GTPγS mDOR IC50” value (mDOR) was “no activity”.
For CC[C@@H]1CN2CCc3c([nH]c4cccc(O)c34)[C@@H]2C[C@@H]1/C(=C\OC)C(=O)OC [9-hydroxy corynanthedine, 9-hydroxycorynantheidine], the “[35S]GTPγS mDOR IC50” value (mDOR) was “no activity”.
For CC[C@@H]1CN2CC[C@]3(Nc4cccc(OC)c4C3=O)[C@@H]2C[C@@H]1/C(=C\OC)C(=O)OC [mitragynine pseudoindoxyl], the “inhibition of GI transit (in words)” value (C57BL/6J mice [6]) is listed as “showed constipation at all doses”, the “opioid receptor dependence of antinociception (MOR, DOR, KOR KO mice)” value (129Sv6 mice [2]) is listed as “mediated through MOR, independent of DOR/KOR” and the “more antinociceptive potency than mitragynine (sc)” value (129Sv6 mice [2]; 129Sv6 mice, sc) is listed as over 100 fold. The “effect of naloxone on antinociception” value (129Sv6 mice [2]) was “naloxone-sensitive”, the “[35S]GTPγS mKOR EC50” value (mKOR [7]) was “no activity” and the “antinociceptive potency over sc morphine” value (C57BL/6J mice [8]; C57BL/6J, sc) was “about 10 fold”. For the same compound, the ED50 (C57BL/6J mice [8]; Mus musculus, sc, read-out: antinociceptive ED50 (95% CI), sc) was 0.26 mg/kg, the “antinociceptive potency relative to morphine” value (C57BL/6J mice [8]; sc, C57BL/6J and 129Sv6 strains) was 2–10 fold and the “level in plasma and brain at 8 h” value [9, 19] was “no quantifiable”. The concentration at 20 min ([9]; C57BL/6J, mouse, plasma, sc) was 0.41 ± 0.12 µM, the EC50 (mMOR [10]) was 1.66 ± 0.1 nM and the “antagonism of icv SNC 80 antinociception” value (MOR KO mice [11]; SNC 80 100 nmol icv) was “antagonized”. The “antagonism of icv U50, 488H antinociception” value (MOR KO mice [11]; U50, 488H 100 nmol icv) was “antagonized”.
For CC[C@@H]1CN2CCc3c([nH]c4cccc(OC)c34)[C@@H]2C[C@@H]1/C(=C\OC)C(=O)OC [mitragynine], the self-administration (rats) is listed as “not self-administered”, the “increase of half-life in microsomes in the presence of ketoconazole” value [12] is listed as ~ 5 fold and the “brain concentration of intact mitragynine” value ([13]; 129Sv6, po, ED80 dose (10 mg/kg)) is listed as 12.22 ± 3.4 µM. The brain concentration ([13]; 129Sv6, sc 10 mg/kg) was 30.06 ± 8.12 µM, the “oral LD50 corrected by standard allometric scaling, amount in an adult human” value (129Sv6 mice [14]) was over 2.5 g and the LD50 (Lethality) was 750 mg/kg. The “conditioned place preference (CPP/CPA)” value (C57BL/6J mice [15]) was “displayed CPP; also recorded: produced reward behavior”, the “opioid receptor dependence of antinociception (MOR, DOR, KOR KO mice)” value (129Sv6 mice [2]) was “mediated by MOR (but not DOR and KOR)” and the “effect of naloxone on antinociception” value (129Sv6 mice [2]) was “reversed”. For the same compound, the “[35S]GTPγS mKOR EC50” value (mKOR [7]) was “no activity”, the “time to peak antinociceptive effect” value (C57BL/6J mice [8]; both strains (C57BL/6J, 129Sv6), po and sc) was 15 to 20 min and the “level in plasma and brain at 24 h” value [9, 19] was “below detection limits”. For the same compound, the “brain concentration of intact mitragynine” value ([9]; C57BL/6J, po, ED80 dose (30 mg/kg)) was 6.63 ± 0.67 µM, the brain concentration ([9]; C57BL/6J, sc 30 mg/kg) was 9.74 ± 3.05 µM and the “brain concentration greater than MOR agonist potency” value ([9]; po ED80 dose, C57BL/6J and 129Sv6) was 30-to-60 fold. The lethality (C57BL/6J mice [4]; 1 g/kg, po, data not shown) was 100%, the “lethality (in words)” value (MOR KO mice [5]; 1 g/kg po, C57BL/6J or MOR KO mice) was “death of all animals” and the “reported LD50” value (mice) was 477 mg/kg. For the same compound, the “stability in D2O” value ([16]; 1H NMR at 1, 5, 10, 24 h, room temperature) was “stable”, the “stability in pH 7.4 buffer” value ([16]; LC/MS at 1, 5, 10 and 24 h) was “very stable” and the “hyperlocomotion compared to morphine” value (C57BL/6J mice [17]) was “attenuated”.
For CN1CC[C@]23c4c5ccc(O)c4O[C@H]2[C@@H](O)C=C[C@H]3[C@H]1C5 [morphine], the “antinociceptive ED50” value (CD1 mice) is listed as 5 mg/kg, the “antinociceptive ED50 (95% CI), po” value (129Sv6 mice [2]; 129Sv6 mice, po, at peak effect) is listed as 3.32 (2.08–5.32) mg/kg and the “potency intravenously versus orally” value (humans) is listed as ~ 3 fold.
In the case of C=C[C@H]1CN2CCc3c([nH]c4cccc(OC)c34)[C@@H]2C[C@@H]1/C(=C\OC)C(=O)OC [paynanthine, paynantheine], the “antinociceptive activity in the tail-flick assay at doses as high as 100 mg/kg” value (129Sv6 mice [2]; 129Sv6 mice) is reported as “inactive”.
With CC[C@H]1CN2CCc3c([nH]c4cccc(OC)c34)[C@@H]2C[C@@H]1/C(=C\OC)C(=O)OC [speciogynine] the “[35S]GTPγS mKOR %Emax” value (mKOR [18]) was “no activity” and the “antinociceptive activity in the tail-flick assay at doses as high as 100 mg/kg” value (129Sv6 mice [2]; 129Sv6 mice) was “inactive”.
